Reference: the supplement of paper PMC11061612

Assays:
Experiment in all cases: Bliss excess, mean over the matrix (fraction); higher = more synergy
[1] = tested on: AN3-CA (Endometrial Carcinoma)
In short: (§1)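 After 24 hours at 37°C and 5% CO2 in 1536-well plates, cells in DMEM/F12 or RPMI plus 10% FBS received two-drug dose matrices for 72 hours. Viability came from CellTiter-Glo 2.0 luminescence and was scaled as inhibition, anchored at 0 by vehicle wells and at 1 by blank wells. Combination Emax is taken as the second-highest inhibition in the matrix, and Bliss excess as the observed combination effect less EA + EB − EA·EB, with EA and EB the single-agent effects.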

[2] = tested on: BALL-1 (B-Lymphoblastic Leukemia)
In short: as §1

[3] = tested on: RERF-LC-KJ (Lung Adenocarcinoma)
In short: as §1

[4] = tested on: NCI-H196 (Small Cell Lung Carcinoma)
In short: as §1

[5] = tested on: RMG-I (Ovarian Carcinoma)
In short: as §1

[6] = tested on: SNU-175 (Colorectal Carcinoma)
In short: as §1

[7] = tested on: NCI-H1155 (Non-Small Cell Lung Carcinoma)
In short: as §1

[8] = tested on: LOUCY (T-Lymphoblastic Leukemia)
In short: as §1

[9] = tested on: OV-90 (Ovarian Carcinoma)
In short: as §1

[10] = tested on: Calu-6 (Non-Small Cell Lung Carcinoma)
In short: as §1

[11] = tested on: LAMA-84 (Chronic Myelogenous Leukemia)
In short: as §1

HuO-3N1 (Osteosarcoma) = tested on: HuO-3N1 (Osteosarcoma)
In short: as §1

[12] = tested on: NCI-H1755 (Lung Adenocarcinoma)
In short: as §1

[13] = tested on: NCI-H1623 (Lung Adenocarcinoma)
In short: as §1

[14] = tested on: Becker (Low Grade Glioma)
In short: as §1

[15] = tested on: CML-T1 (Chronic Myelogenous Leukemia)
In short: as §1

[16] = tested on: Caov-3 (Ovarian Carcinoma)
In short: as §1

[17] = tested on: SW684 (Other Solid Carcinomas)
In short: as §1

[18] = tested on: PANC-02-03 (Pancreatic Carcinoma)
In short: as §1

[19] = tested on: EB-3 (Burkitt's Lymphoma)
In short: as §1

SMILES	Bliss excess [1]	Bliss excess [2]	Bliss excess [3]	Bliss excess [4]	Bliss excess [5]	Bliss excess [6]	Bliss excess [7]	Bliss excess [8]	Bliss excess [9]	Bliss excess [10]	Bliss excess [11]	Bliss excess (HuO-3N1 (Osteosarcoma))	Bliss excess [12]	Bliss excess [13]	Bliss excess [14]	Bliss excess [15]	Bliss excess [16]	Bliss excess [17]	Bliss excess [18]	Bliss excess [19]
COc1cccc(OCCCN)c1-c1cc(Nc2cnc(C#N)cn2)n[nH]1 [Prexasertib] + C[C@@H]1COCCN1C2=NC(=NC(=C2)C3(CC3)[S@](=N)(=O)C)C4=C5C=CNC5=NC=C4 [AZD6738] (first compound max 1 µM, 7x7, partner max 10 µM)	-0.0308	-0.001	-0.0002	-0.049	0.0108	0.0641	-0.0438	-0.0009	-0.0275	-0.0852	-0.0052	0.0204	-0.0534	-0.0745	-0.0317	-0.0309	-0.0647	-0.018	0.0434	-0.0598
COc1cccc(OCCCN)c1-c1cc(Nc2cnc(C#N)cn2)n[nH]1 [Prexasertib] + Cc1cc2ncnn2cc1Nc1ncc2c(n1)n(C1CCOCC1)c(=O)n2C [AZD7648] (first compound max 1 µM, 7x7, partner max 10 µM)	-0.0393	0.0202	0.0558	-0.0361	-0.0235	0.0311	0.0039	-0.0021	0.0252	-0.0354	-0.0208	-0.0498	-0.0249	-0.0588	-0.0081	-0.0175	-0.0376	-0.0408	-0.0019	-0.0106
CC1(C)CCC(CN2CCN(c3ccc(C(=O)NS(=O)(=O)c4ccc(NCC5CCOCC5)c([N+](=O)[O-])c4)c(Oc4cnc5[nH]ccc5c4)c3)CC2)=C(c2ccc(Cl)cc2)C1 [Venetoclax] + C[C@@H]1COCCN1C2=NC(=NC(=C2)C3(CC3)[S@](=N)(=O)C)C4=C5C=CNC5=NC=C4 [AZD6738] (first compound max 1 µM, 7x7, partner max 10 µM)	-0.0068	0.0053	-0.0036	0.0092	-0.0178	-0.0392	0.0582	-0.0462	0.0022	-0.0261	-0.0263	-0.0375	-0.0578	0.0068	-0.0388	0.0145	-0.0574	-0.0138	-0.0199	-0.0047
Cc1cc2ncnn2cc1Nc1ncc2c(n1)n(C1CCOCC1)c(=O)n2C [AZD7648] + O=C(c1cc(Cc2n[nH]c(=O)c3ccccc23)ccc1F)N1CCN(C(=O)C2CC2)CC1 [Olaparib] (first compound max 10 µM, 7x7, partner max 10 µM)	-0.0738	0.0624	-0.0546	-0.0435	-0.0685	-0.025	-0.0235	-0.0388	-0.0419	-0.0391	-0.0044	-0.031	-0.0464	-0.0486	-0.0281	-0.0483	-0.0336	-0.0452	-0.0411	-0.0401
C=CCn1c(=O)c2cnc(Nc3ccc(N4CCN(C)CC4)cc3)nc2n1-c1cccc(C(C)(C)O)n1 [AZD1775] + O=C(c1cc(Cc2n[nH]c(=O)c3ccccc23)ccc1F)N1CCN(C(=O)C2CC2)CC1 [Olaparib] (first compound max 1 µM, partner max 10 µM)	0.0003	0.0054	-0.035	-0.0552	-0.0105	-0.0028	0.0355	0.0492	-0.0424	-0.0421	-0.0086	-0.0835	-0.0291	-0.0233	-0.0254	0.0213	-0.0396	-0.0689	-0.0513	-0.0426
Cc1cc2ncnn2cc1Nc1ncc2c(n1)n(C1CCOCC1)c(=O)n2C [AZD7648] + C=CCn1c(=O)c2cnc(Nc3ccc(N4CCN(C)CC4)cc3)nc2n1-c1cccc(C(C)(C)O)n1 [AZD1775] (first compound max 10 µM, partner max 1 µM)	-0.0091	-0.0169	0.0509	-0.0249	0.02	-0.0043	0.033	0.0464	-0.0163	-0.0282	0.046	-0.0205	0.0084	0.0376	-0.0269	0.0112	-0.0869	-0.017	0.0306	-0.102
Cc1cc2ncnn2cc1Nc1ncc2c(n1)n(C1CCOCC1)c(=O)n2C [AZD7648] + C[C@@H]1COCCN1C2=NC(=NC(=C2)C3(CC3)[S@](=N)(=O)C)C4=C5C=CNC5=NC=C4 [AZD6738] (first compound max 10 µM, 7x7, partner max 10 µM)	0.0515	0.0025	0.0386	0.0126	0.0557	-0.0374	0.0038	0.0271	-0.0156	-0.018	-0.0284	0.0042	0.0513	0.0359	-0.0207	-0.0465	0.0433	-0.0272	0.0561	-0.0278
CN(CCO)CC[C@H](CSc1ccccc1)Nc1ccc(S(=O)(=O)NC(=O)c2ccc(N3CCC([C@@H](O)c4ccccc4-c4ccc(Cl)cc4)CC3)cc2)cc1S(=O)(=O)C(F)(F)F [AZD4320] + Cc1cc2ncnn2cc1Nc1ncc2c(n1)n(C1CCOCC1)c(=O)n2C [AZD7648] (first compound max 1 µM, 7x7, partner max 10 µM)	-0.0057	0.0087	-0.0314	-0.0395	-0.0676	-0.006	0.017	0.0365	-0.055	-0.0522	-0.0161	0.0015	-0.0279	-0.0206	-0.0211	0.0044	-0.0199	-0.0628	-0.0568	-0.0076
COc1cccc(OCCCN)c1-c1cc(Nc2cnc(C#N)cn2)n[nH]1 [Prexasertib] + C=CCn1c(=O)c2cnc(Nc3ccc(N4CCN(C)CC4)cc3)nc2n1-c1cccc(C(C)(C)O)n1 [AZD1775] (first compound max 1 µM, partner max 1 µM)	0.0766	0.0618	0.0487	-0.0317	0.0265	0.0595	0.0998	0.0578	-0.0477	-0.0201	0.0731	0.122	-0.0104	0.0519	0.0374	0.189	-0.0546	0.0798	0.0504	0.0312
Cc1c2c(nn1C)CSCc1cc(n(C)n1)CSc1cc(c3ccccc3c1)OCCCc1c(C(=O)O)n(C)c3c-2c(Cl)ccc13 [AZD5991] + C1CN(CCC1(C(=O)N[C@@H](CCO)C2=CC=C(C=C2)Cl)N)C3=NC=NC4=C3C=CN4 [Capivasertib] (first compound max 1 µM, 7x7, partner max 3 µM)	0.145	0.0369	-0.0112	-0.0499	-0.0488	0.0213	0.0369	0.0143	0.0139	0.0106	0.0007	0.0122	0.0186	0.0471	-0.0169	-0.0081	-0.01	-0.0298	-0.037	-0.0013
CN(C)CCCOc1ccc(-c2ccc3ncc4c(c3c2)n(C2CCOCC2)c(=O)n4C)cn1 [AZD0156] + CCN(CCO)CCCOc1ccc2c(Nc3cc(CC(=O)Nc4cccc(F)c4)[nH]n3)ncnc2c1 [AZD2811] (first compound max 1 µM, 7x7, partner max 1 µM)	-0.0019	0.171	-0.004	-0.05	-0.072	-0.0101	-0.0175	-0.0646	-0.0823	-0.0112	-0.021	-0.0225	-0.0132	-0.0321	-0.0293	0.0352	-0.0478	-0.0583	-0.0371	0.0304
CC(=O)Nc1cccc(-n2c(=O)n(C3CC3)c(=O)c3c(Nc4ccc(I)cc4F)n(C)c(=O)c(C)c32)c1 [Trametinib] + Cc1nc(-c2cn3c(n2)-c2ccc(-c4cnn(C(C)(C)C(N)=O)c4)cc2OCC3)n(C(C)C)n1 [Taselisib] (first compound max 1 µM, 7x7, partner max 10 µM)	0.0575	0.142	0.0564	0.0039	-0.0099	0.0779	0.0426	0.0668	0.0922	0.168	0.0537	0.0402	0.115	0.144	0.121	0.0426	0.0289	0.161	0.179	0.0489
CN(CCO)CC[C@H](CSc1ccccc1)Nc1ccc(S(=O)(=O)NC(=O)c2ccc(N3CCC([C@@H](O)c4ccccc4-c4ccc(Cl)cc4)CC3)cc2)cc1S(=O)(=O)C(F)(F)F [AZD4320] + CN(C)CCCOc1ccc(-c2ccc3ncc4c(c3c2)n(C2CCOCC2)c(=O)n4C)cn1 [AZD0156] (first compound max 1 µM, 7x7, partner max 1 µM)	-0.0153	-0.0185	-0.0413	-0.0414	-0.048	-0.0219	-0.0105	-0.006	-0.0141	-0.0156	-0.0089	-0.0021	-0.0164	-0.071	-0.035	0.013	-0.0198	-0.0641	-0.0553	-0.0389
COc1cccc(OCCCN)c1-c1cc(Nc2cnc(C#N)cn2)n[nH]1 [Prexasertib] + CCc1c2c(nc3ccc(O)cc13)-c1cc3c(c(=O)n1C2)COC(=O)[C@]3(O)CC [SN-38] (first compound max 1 µM, 7x7, partner max 0.3 µM)	0.0972	-0.016	0.0513	0.0391	-0.102	-0.0298	-0.0161	0.0103	-0.0591	-0.0116	-0.0066	-0.0105	-0.0057	-0.0364	-0.0716	0.0077	-0.0539	0.0036	0.0098	-0.0404
